{
  "source": "patent US8557829B2",
  "about": "“Use of allopurinol for the treatment of palmar plantar erythrodysesthesia” (Nobera Pharma, S.L., priority 2006, dated 2013)",
  "key": {"[1]": {"conditions": "cited from earlier work"}, "[2]": {"tested_on": "Patients suffering from colon cancer or breast cancer", "experiment": "Example 3: response of PPE to allopurinol cream treatment", "assay_type": "in vivo, human", "experimental": "(§1) Patients suffering from colon cancer or breast cancer were treated from January 2005 up to March 2007 with the following standard chemotherapy: • AIO protocol: high dose infusion 5FU24H+leucovorin • FOLFOX 4 protocol: day 1: oxaliplatin, 85 mg/m2, and leucovorin, 200 mg/m2, concurrently i.v., then 5-FU, 400 mg/m2 i.v. bolus followed by 600 mg/m2 continuous i.v.; day 2: leucovorin, 200 mg/m2 i.v., then 5-FU, 400 mg/m2 i.v. bolus, followed by 600 mg/m2 continuous i.v.; repeated every 2 weeks. • Oral capecitabine.\nThe cream comprising allopurinol as prepared in example 1 was topically applied by the patients 4-5 times a day to the hands and feet. In case of no response to this treatment and persistence of PPE symptoms, the dosage of chemotherapy was reduced and some cases interrupted."}, "[3]": {"target": "T1, deoxythymidine phosphorylase (thymidine phosphorylase, TP) (Homo sapiens, UniProt P19971)", "T1 sequence (P19971 11-482)": "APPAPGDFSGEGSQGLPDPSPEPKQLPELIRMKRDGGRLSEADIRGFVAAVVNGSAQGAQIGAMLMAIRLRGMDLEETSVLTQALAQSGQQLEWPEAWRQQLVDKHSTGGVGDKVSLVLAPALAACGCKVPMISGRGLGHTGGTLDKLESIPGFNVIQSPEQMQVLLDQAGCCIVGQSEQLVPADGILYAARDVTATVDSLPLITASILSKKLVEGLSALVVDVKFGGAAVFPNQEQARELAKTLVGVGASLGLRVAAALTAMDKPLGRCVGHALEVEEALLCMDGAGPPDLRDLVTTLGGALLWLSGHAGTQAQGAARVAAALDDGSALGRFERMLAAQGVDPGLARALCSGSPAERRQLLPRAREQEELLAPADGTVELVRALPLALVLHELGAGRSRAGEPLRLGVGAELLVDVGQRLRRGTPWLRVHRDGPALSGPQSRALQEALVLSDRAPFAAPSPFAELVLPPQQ", "conditions": "Gallo et al. J Biological Chemistry 1968; cited from earlier work"}, "[4]": {"tested_on": "Patients with colorectal carcinoma", "experiment": "Example 2: treatment of palmar plantar erythrodysesthesia with the allopurinol cream", "assay_type": "in vivo, human", "experimental": "Patients with colorectal carcinoma were administered chemotherapy (adjuvant or palliative) following the usual protocols. As soon as the first symptoms of palmar planar erythrodysesthesia appeared after starting chemotherapy, the patients were administered the cream prepared in example 1.\nThe characteristics of the patients treated with the cream and the chemotherapeutic regimen that they were administered were as follow:\nPatients with advanced or metastatic colorectal cancer: 8\nPatients with resected stage III colon cancer: 2\n• 5FU+LV bolus (Mayo protocol): 1 patient • 5FU+LV infusional (AIO protocol): 7 patients • Capecitabine monotherapy: 2 patients\nThe cream was applied 5 times per day, to the palms and soles, as long as the chemotherapy was applied. The frequency was reduced in between cycles and increased shortly before and during chemotherapy administration."}, "uridine phosphorylase": {"target": "uridine phosphorylase (Homo sapiens, UniProt Q16831)", "sequence (Q16831 whole entry)": "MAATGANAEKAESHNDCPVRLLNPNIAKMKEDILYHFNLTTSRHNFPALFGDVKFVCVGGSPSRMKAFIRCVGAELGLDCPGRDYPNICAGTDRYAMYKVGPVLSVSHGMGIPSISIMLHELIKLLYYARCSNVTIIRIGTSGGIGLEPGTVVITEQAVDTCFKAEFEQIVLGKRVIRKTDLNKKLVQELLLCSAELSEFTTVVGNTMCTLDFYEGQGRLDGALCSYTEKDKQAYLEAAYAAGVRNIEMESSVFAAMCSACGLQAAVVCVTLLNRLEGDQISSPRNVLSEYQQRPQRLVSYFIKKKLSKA", "conditions": "Gallo et al. J Biological Chemistry 1968; cited from earlier work"}, "[5]": {"tested_on": "Patients suffering from colon cancer or breast cancer", "experiment": "Example 3: appearance of PPE under standard chemotherapy", "assay_type": "in vivo, human", "experimental": "as §1\nPalmar plantar erythrodysesthesia (PPE) appeared in 30% of the patients treated with 5-FU and in 66% of those treated with capecitabine."}, "cancer patients": {"tested_on": "cancer patients", "conditions": "colon / colorectal cancer, versus fluorouracil+leucovorin; cited from earlier work"}, "[6]": {"conditions": "2 PPE patients on FOLFOX-4 chemotherapy"}, "[7]": {"conditions": "3% cream 4-5 times a day to hands and feet"}, "[8]": {"conditions": "5 PPE patients on AIO chemotherapy"}, "[9]": {"conditions": "8 PPE patients on Capecitabine chemotherapy"}, "[10]": {"conditions": "all 15 PPE patients, 3% cream 4-5 times a day"}, "[11]": {"conditions": "all 15 PPE patients, 3% cream 4-5 times a day, listed as allopiirinol"}, "[12]": {"conditions": "standard chemotherapy, before allopurinol treatment"}},
  "data": [
    {"smiles": "Oc1ncnc2[nH]ncc12", "note": "[allopurinol, 1,5-dihydro-4H-pyrazolo[3,4-d]pyrimidin-4-one]", "values": [
      {"measurement": "solubility in chloroform and in ether", "setting": "[1]", "result": "practically insoluble"},
      {"measurement": "solubility in dilute solutions of alkali hydroxides", "setting": "[1]", "result": "dissolves"},
      {"measurement": "solubility in water and alcohol", "setting": "[1]", "result": "very slightly soluble"},
      {"measurement": "NR: no response, %", "setting": "[2]; [6]", "result": 50, "unit": "%"},
      {"measurement": "PR: Partial remission, %", "setting": "[2]; [6]", "result": 50, "unit": "%"},
      {"measurement": "TR: total response, %", "setting": "[2]; [6]", "result": 50, "unit": "%"},
      {"measurement": "patients that had developed PPE in whom chemotherapy was completed as planned", "setting": "[2]; [7]", "result": 86, "unit": "%"},
      {"measurement": "toxic effects associated to the topical treatment", "setting": "[2]; [7]", "result": "No toxics effects"},
      {"measurement": "CR: complete remission, %", "setting": "[2]; [8]", "result": 80, "unit": "%"},
      {"measurement": "NR: no response, %", "setting": "[2]; [8]", "result": 0, "unit": "%"},
      {"measurement": "PR: Partial remission, %", "setting": "[2]; [8]", "result": 20, "unit": "%"},
      {"measurement": "TR: total response, %", "setting": "[2]; [8]", "result": 100, "unit": "%"},
      {"measurement": "CR: complete remission, %", "setting": "[2]; [9]", "result": 62.5, "unit": "%^"},
      {"measurement": "NR: no response, %", "setting": "[2]; [9]", "result": 12.5, "unit": "%"},
      {"measurement": "PR: Partial remission, %", "setting": "[2]; [9]", "result": 25, "unit": "%"},
      {"measurement": "TR: total response, %", "setting": "[2]; [9]", "result": 87, "unit": "%"},
      {"measurement": "quality of life", "setting": "[2]; PPE patients treated with the 3% cream", "result": "significantly improved"},
      {"measurement": "CR: complete remission, %", "setting": "[2]; [10]", "result": 66, "unit": "%"},
      {"measurement": "NR: no response, %", "setting": "[2]; [10]", "result": 13.3, "unit": "%^"},
      {"measurement": "PR: Partial remission, %", "setting": "[2]; [10]", "result": 20, "unit": "%"},
      {"measurement": "TR: total response, %", "setting": "[2]; all 15 PPE patients, 3% cream 4-5 times a day to hands and feet", "result": 86, "unit": "%"},
      {"measurement": "TR: total response, %", "setting": "[2]; all 15 PPE patients, 3% cream 4-5 times a day to hands and feet, listed as allopiirinol", "result": 86.6, "unit": "%^"},
      {"measurement": "CR: complete remission, %", "setting": "[2]; [11]", "result": 66.6, "unit": "%^"},
      {"measurement": "PR: Partial remission, %", "setting": "[2]; [11]", "result": 20.0, "unit": "%^"},
      {"measurement": "inhibition of thymidine phosphorylase (TP)", "setting": "[3]", "result": "inhibits TP"},
      {"measurement": "symptoms of PPE following the topical treatment", "setting": "[4]; 10 patients on 5FU+LV (Mayo or AIO) or capecitabine, 3% cream of example 1, 5 times per day to palms and soles", "result": "the symptoms of PPE disappeared"},
      {"measurement": "completion of chemotherapy", "setting": "[4]; 10 patients on 5FU+LV or capecitabine, 3% cream, 5 times per day to palms and soles", "result": "completed without any dose reduction or delay in the treatment due to PPE"},
      {"measurement": "appearance of PPE", "setting": "[4]; topical application to cancer patients being treated with chemotherapy (summary statement)", "result": "completely avoided the appearance of PPE"},
      {"measurement": "inhibition of uridine phosphorylase", "setting": "uridine phosphorylase", "result": "not uridine phosphorylase"}
    ]},
    {"smiles": "CCCCCOC(=O)Nc1nc(=O)n([C@@H]2O[C@H](C)[C@@H](O)[C@H]2O)cc1F", "note": "[Capecitabine]", "values": [
      {"measurement": "Cumulative dosis with capecitabine until apprearauce of PPE, Median", "setting": "[5]; patients who developed PPE", "result": 81.000, "unit": "mg"},
      {"measurement": "PPE symptoms, % of patients", "setting": "[5]; [12]", "result": 66, "unit": "%"},
      {"measurement": "PPE symptoms, n (of patients treated)", "setting": "[5]; [12]", "result": "8(12)"},
      {"measurement": "PPE symptoms, % of patients", "setting": "[5]; standard chemotherapy, before allopurinol treatment, listed as capecitabine", "result": 66, "unit": "%"},
      {"measurement": "incidence of hand-foot syndrome (PPE), all grades", "setting": "cancer patients", "result": "49-60%"},
      {"measurement": "incidence of hand-foot syndrome (PPE), severe grades", "setting": "cancer patients", "result": 17, "unit": "%"}
    ]},
    {"smiles": "O=c1[nH]cc(F)c(=O)[nH]1", "note": "[5-FU, Fluorouracil]", "values": [
      {"measurement": "PPE symptoms, % of patients", "setting": "[5]; [12]", "result": 30, "unit": "%"}
    ]}
  ]
}
